In patent US10231954B2, “Neurodegenerative therapies” (LYTIX BIOPHARMA AS, priority 2014, dated 2019):
Where two headings read alike, the source gives them in different places.

Tests used:
Format in all cases: biochemical
PKA = PKA (Homo sapiens, UniProt P17612); experiment: Kinase profiling PKA; settings: for remaining activity at 100 µM: read-out: residual kinase activity, PKA
Source text: (§1) Any value less that 25 is considered to be highly significant inhibition.

MKK6 = molecular target: T1, MKK6 (Homo sapiens, UniProt P52564); experiment: Kinase profiling MKK6; settings: for remaining activity at 100 µM: read-out: residual kinase activity, MKK6
T1 sequence (P52564 1-334): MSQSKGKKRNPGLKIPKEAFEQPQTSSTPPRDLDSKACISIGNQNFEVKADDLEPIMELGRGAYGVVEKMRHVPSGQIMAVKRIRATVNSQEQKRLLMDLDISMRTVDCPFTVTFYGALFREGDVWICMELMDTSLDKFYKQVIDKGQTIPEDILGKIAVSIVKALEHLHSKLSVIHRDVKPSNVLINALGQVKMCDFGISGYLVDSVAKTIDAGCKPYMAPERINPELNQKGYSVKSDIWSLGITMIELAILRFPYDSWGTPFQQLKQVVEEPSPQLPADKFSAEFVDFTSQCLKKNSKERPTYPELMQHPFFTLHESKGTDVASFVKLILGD
Source text: as §1

ROCK 2 = ROCK 2 (Homo sapiens, UniProt O75116); experiment: Kinase profiling ROCK 2; settings: for remaining activity at 100 µM: read-out: residual kinase activity, ROCK 2
Source text: as §1

IRAK4 = molecular target: T2, IRAK4 (Homo sapiens, UniProt Q9NWZ3); experiment: Kinase profiling IRAK4; settings: for remaining activity at 100 µM: read-out: residual kinase activity, IRAK4
T2 sequence (Q9NWZ3 1-460): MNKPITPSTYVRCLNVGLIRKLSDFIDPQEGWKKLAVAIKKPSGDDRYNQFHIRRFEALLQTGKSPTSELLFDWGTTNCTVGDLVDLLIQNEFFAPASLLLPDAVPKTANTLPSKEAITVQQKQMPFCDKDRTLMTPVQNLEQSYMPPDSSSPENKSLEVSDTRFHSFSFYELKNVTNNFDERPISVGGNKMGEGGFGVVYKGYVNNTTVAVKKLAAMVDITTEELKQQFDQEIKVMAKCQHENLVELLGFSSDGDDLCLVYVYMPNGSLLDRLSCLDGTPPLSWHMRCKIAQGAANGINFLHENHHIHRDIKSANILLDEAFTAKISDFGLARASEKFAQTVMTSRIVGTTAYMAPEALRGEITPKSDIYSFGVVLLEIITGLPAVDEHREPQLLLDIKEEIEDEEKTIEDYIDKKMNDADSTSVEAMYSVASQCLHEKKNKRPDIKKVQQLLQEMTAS
Source text: as §1

SGK1 = molecular target: T3, SGK1 (Homo sapiens, UniProt O00141); experiment: Kinase profiling SGK1; settings: for remaining activity at 100 µM: read-out: residual kinase activity, SGK1
T3 sequence (O00141 1-431): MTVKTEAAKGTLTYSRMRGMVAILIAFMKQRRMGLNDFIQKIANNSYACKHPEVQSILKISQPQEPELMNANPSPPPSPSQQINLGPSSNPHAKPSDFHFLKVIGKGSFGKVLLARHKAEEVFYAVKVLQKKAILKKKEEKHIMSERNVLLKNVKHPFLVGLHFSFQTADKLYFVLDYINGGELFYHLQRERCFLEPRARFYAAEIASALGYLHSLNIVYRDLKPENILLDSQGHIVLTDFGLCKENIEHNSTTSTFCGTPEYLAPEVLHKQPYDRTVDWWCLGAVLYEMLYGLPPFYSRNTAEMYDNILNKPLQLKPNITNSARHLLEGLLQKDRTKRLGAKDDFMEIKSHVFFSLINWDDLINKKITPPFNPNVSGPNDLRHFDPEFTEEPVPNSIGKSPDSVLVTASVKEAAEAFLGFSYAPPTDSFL
Source text: as §1

TTK = molecular target: T4, TTK (Homo sapiens, UniProt P33981); experiment: Kinase profiling TTK; settings: for remaining activity at 100 µM: read-out: residual kinase activity, TTK
T4 sequence (P33981 1-857): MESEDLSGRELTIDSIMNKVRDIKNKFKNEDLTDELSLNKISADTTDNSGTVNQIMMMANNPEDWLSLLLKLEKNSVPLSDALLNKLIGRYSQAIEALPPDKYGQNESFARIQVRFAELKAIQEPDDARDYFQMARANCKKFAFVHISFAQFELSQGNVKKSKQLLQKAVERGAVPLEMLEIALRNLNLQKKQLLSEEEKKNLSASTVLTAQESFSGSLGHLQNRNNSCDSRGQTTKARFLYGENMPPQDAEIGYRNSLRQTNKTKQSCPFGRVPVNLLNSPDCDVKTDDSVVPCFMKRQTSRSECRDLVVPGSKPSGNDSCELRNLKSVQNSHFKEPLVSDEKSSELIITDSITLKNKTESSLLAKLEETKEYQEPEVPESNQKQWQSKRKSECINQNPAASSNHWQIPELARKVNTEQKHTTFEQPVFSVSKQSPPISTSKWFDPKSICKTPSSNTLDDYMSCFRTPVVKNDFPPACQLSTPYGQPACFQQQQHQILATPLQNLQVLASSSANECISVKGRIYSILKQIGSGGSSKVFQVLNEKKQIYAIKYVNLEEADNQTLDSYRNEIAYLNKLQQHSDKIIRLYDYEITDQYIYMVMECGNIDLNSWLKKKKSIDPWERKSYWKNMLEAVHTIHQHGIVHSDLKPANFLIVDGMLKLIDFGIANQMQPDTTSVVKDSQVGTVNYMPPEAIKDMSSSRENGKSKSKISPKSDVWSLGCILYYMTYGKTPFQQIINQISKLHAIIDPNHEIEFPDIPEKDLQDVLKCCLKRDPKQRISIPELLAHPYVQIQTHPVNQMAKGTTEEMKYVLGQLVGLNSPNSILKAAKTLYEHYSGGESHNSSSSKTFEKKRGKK
Source text: as §1

PKBa = PKBa (Homo sapiens, UniProt P31749); experiment: Kinase profiling PKBa; settings: for residual kinase activity, PKBa: 100 micromolar inhibitor concentration, 100 is no change; for remaining activity at 100 µM: read-out: residual kinase activity, PKBa
Source text: as §1

MSK1 = MSK1 (Homo sapiens, UniProt O75582); experiment: Kinase profiling MSK1; settings: for remaining activity at 100 µM: read-out: residual kinase activity, MSK1
Source text: as §1

IGF-1R = IGF-1R (Homo sapiens, UniProt P08069); experiment: Kinase profiling IGF-1R; settings: for remaining activity at 100 µM: read-out: residual kinase activity, IGF-1R
Source text: as §1

p38d MAPK = molecular target: T5, p38d MAPK (Homo sapiens, UniProt O15264); experiment: Kinase profiling p38d MAPK; settings: for remaining activity at 100 µM: read-out: residual kinase activity, p38d MAPK
T5 sequence (O15264 1-365): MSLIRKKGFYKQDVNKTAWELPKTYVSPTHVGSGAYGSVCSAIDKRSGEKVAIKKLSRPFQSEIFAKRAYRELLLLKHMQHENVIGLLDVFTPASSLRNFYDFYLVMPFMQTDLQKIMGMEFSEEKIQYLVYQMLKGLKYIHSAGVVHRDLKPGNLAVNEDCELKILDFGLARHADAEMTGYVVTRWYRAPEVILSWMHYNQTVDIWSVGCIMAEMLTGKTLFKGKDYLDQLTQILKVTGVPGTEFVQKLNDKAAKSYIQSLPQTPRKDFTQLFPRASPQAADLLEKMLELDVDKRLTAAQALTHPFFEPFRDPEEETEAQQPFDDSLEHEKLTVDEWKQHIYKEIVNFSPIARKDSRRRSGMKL
Source text: as §1

VEG-FR = experiment: Kinase profiling VEG-FR; settings: 100 micromolar inhibitor concentration; 100 is no change
Source text: as §1

[1] = 100 micromolar inhibitor concentration, 100 is no change

Chain of PKBa (P31749 whole entry): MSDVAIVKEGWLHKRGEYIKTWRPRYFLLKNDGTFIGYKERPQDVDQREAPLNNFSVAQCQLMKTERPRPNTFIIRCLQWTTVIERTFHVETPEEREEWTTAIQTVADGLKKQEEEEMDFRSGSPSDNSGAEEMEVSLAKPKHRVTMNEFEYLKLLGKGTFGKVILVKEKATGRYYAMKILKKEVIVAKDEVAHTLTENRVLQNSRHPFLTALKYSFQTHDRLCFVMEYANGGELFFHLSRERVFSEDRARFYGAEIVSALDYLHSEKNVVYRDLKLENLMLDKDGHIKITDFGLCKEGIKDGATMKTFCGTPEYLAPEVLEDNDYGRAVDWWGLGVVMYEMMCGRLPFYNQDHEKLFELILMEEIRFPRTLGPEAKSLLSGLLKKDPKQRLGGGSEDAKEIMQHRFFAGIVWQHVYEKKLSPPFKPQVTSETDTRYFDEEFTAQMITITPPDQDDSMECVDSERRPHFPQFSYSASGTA
Chain of IGF-1R (P08069 31-1367, species assumed): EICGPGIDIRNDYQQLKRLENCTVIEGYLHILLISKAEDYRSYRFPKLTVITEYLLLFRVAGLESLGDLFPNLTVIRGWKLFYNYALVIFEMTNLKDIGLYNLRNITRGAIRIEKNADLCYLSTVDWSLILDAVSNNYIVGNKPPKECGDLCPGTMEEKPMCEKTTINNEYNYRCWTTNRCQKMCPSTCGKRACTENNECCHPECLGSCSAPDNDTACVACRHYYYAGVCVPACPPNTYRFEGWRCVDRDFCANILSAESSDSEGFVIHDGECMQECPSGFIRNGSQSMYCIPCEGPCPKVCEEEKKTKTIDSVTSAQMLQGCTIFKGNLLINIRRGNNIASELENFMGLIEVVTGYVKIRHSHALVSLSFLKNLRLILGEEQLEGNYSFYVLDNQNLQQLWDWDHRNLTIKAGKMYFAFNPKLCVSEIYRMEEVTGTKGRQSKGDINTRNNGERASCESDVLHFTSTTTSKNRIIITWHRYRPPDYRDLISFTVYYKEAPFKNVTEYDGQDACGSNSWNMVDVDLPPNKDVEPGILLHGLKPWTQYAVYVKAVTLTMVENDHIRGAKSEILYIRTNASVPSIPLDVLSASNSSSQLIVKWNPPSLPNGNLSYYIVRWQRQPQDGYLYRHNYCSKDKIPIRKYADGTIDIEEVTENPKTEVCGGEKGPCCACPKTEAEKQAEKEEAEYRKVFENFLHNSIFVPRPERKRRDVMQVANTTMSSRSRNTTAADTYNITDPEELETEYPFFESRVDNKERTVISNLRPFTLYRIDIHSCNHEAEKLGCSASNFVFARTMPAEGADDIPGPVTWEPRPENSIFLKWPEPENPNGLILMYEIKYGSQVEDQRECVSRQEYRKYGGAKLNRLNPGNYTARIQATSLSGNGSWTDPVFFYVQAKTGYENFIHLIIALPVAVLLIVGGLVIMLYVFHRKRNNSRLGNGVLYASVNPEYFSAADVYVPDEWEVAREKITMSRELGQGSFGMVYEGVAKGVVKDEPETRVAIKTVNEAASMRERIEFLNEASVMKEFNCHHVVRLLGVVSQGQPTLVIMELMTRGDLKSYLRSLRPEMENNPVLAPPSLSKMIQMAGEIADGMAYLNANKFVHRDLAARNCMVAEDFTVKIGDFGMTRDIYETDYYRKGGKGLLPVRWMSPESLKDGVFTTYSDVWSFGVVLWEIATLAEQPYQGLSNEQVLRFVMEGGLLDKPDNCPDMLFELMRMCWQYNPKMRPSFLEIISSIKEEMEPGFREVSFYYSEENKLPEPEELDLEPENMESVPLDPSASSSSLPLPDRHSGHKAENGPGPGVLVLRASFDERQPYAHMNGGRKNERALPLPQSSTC
Chain of ROCK 2 (O75116 whole entry, species assumed): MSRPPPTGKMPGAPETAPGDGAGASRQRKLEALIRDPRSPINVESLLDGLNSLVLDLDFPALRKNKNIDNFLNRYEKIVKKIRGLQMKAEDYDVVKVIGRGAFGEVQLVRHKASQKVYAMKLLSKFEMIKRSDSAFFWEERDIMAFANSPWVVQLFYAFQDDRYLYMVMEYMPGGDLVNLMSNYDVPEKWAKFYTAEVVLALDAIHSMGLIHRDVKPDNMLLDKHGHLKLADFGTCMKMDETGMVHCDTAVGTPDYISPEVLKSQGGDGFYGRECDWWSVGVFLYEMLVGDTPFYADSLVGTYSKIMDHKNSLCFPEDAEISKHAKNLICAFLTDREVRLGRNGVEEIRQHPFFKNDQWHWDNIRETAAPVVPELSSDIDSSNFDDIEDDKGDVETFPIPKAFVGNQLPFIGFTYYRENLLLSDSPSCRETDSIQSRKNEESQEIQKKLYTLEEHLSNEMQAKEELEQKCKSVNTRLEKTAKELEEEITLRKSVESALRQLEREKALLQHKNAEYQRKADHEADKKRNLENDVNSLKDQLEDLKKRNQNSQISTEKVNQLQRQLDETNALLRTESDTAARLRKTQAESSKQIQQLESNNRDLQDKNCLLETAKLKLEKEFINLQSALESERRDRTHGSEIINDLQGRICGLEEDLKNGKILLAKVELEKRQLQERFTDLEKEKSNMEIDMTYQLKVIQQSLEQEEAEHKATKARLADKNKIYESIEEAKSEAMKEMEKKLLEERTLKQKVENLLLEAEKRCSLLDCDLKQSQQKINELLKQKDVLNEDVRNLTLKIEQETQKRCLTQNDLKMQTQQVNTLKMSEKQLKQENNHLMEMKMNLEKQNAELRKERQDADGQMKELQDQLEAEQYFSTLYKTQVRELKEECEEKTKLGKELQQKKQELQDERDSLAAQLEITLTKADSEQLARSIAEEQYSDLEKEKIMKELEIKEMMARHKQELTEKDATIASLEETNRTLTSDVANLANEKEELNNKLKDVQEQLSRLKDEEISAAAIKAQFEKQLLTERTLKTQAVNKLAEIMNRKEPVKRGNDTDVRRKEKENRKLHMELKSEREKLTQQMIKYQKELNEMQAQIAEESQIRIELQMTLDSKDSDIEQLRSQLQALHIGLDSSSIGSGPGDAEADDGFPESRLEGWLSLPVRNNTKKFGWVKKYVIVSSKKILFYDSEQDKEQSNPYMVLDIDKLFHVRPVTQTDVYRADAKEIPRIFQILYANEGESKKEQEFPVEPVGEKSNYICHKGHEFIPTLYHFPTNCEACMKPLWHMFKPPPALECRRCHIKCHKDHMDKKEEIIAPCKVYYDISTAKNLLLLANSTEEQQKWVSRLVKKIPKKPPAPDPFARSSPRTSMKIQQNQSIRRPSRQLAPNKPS
Chain of MSK1 (O75582 whole entry, species assumed): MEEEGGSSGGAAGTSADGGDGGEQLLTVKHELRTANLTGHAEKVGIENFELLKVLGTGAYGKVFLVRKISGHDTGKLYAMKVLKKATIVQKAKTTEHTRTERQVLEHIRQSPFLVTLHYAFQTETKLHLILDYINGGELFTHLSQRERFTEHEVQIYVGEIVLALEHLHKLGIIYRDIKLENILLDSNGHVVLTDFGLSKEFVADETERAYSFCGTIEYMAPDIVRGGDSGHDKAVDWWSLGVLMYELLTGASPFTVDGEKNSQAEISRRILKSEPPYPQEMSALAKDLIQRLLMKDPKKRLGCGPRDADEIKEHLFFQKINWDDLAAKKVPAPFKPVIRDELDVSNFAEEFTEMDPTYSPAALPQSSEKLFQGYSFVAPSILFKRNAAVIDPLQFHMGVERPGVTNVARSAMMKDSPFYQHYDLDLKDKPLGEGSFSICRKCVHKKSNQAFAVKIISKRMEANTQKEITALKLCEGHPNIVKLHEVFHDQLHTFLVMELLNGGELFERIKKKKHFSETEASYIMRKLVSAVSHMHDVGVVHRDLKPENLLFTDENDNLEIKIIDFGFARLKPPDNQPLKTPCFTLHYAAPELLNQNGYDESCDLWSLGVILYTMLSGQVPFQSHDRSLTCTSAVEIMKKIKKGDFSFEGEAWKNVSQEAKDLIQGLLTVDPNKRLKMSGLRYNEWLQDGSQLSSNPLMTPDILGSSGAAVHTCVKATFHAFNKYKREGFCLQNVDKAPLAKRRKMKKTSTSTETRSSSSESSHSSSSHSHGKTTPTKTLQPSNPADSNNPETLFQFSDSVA

SMILES | residual kinase activity, PKA (PKA; [1]) | residual kinase activity, MKK6 (MKK6; [1]) | residual kinase activity, ROCK 2 (ROCK 2; [1]) | residual kinase activity, SGK1 (SGK1; [1]) | residual kinase activity, PKBa (PKBa) | residual kinase activity, p38d MAPK (p38d MAPK; [1]) | residual kinase activity, VEG-FR (VEG-FR) | other results
O=C(Nc1nc2cc(O)ccc2s1)c1ccncc1 [Compound 03-11] | 110 | 101 | 80 | 84 | 88 | 82 | 58 | residual kinase activity, IRAK4 (IRAK4; [1]): 69; residual kinase activity, TTK (TTK; [1]): 74; residual kinase activity, MSK1 (MSK1; [1]): 97; residual kinase activity, IGF-1R (IGF-1R; [1]): 107
CC(=O)Nc1nc2cc(C)ccc2s1 [Compound 03-76] | 105 | 113 | 79 | 65 | 104 | 85 | 50 | residual kinase activity, IRAK4 (IRAK4; [1]): 51; residual kinase activity, TTK (TTK; [1]): 49; residual kinase activity, MSK1 (MSK1; [1]): 84; residual kinase activity, IGF-1R (IGF-1R; [1]): 75
CC(=O)Nc1nc2cc(O)ccc2s1 [Compound 01-66, N-(5-hydroxybenzo[d]thiazol-2-yl)acetamide] | – | – | – | – | – | – | 24 | remaining activity at 100 µM (PKA): 95%; remaining activity at 100 µM (MKK6): 70%; remaining activity at 100 µM (ROCK 2): 56%; remaining activity at 100 µM (IRAK4): 18%; remaining activity at 100 µM (SGK1): 77%; remaining activity at 100 µM (TTK): 39%; remaining activity at 100 µM (PKBa): 87%; remaining activity at 100 µM (MSK1): 62%; remaining activity at 100 µM (IGF-1R): 26%; remaining activity at 100 µM (p38d MAPK): 70%
CC(=O)Nc1nc2ccc(C(F)(F)F)cc2s1 [Compound 01-90] | – | – | – | – | – | – | 8 | remaining activity at 100 µM (PKA; [1]): 87%; remaining activity at 100 µM (MKK6; [1]): 85%; remaining activity at 100 µM (ROCK 2; [1]): 80%; remaining activity at 100 µM (IRAK4; [1]): 12%; remaining activity at 100 µM (SGK1; [1]): 69%; remaining activity at 100 µM (TTK; [1]): 49%; remaining activity at 100 µM (PKBa): 104%; remaining activity at 100 µM (MSK1; [1]): 87%; remaining activity at 100 µM (IGF-1R; [1]): 84%; remaining activity at 100 µM (p38d MAPK; [1]): 76%
CC(=O)Nc1nc2ccc(O)cc2s1 [Compound 01-71] | – | – | – | – | – | – | 9 | remaining activity at 100 µM (PKA; [1]): 70%; remaining activity at 100 µM (MKK6; [1]): 78%; remaining activity at 100 µM (ROCK 2; [1]): 34%; remaining activity at 100 µM (IRAK4; [1]): 13%; remaining activity at 100 µM (SGK1; [1]): 33%; remaining activity at 100 µM (TTK; [1]): 31%; remaining activity at 100 µM (PKBa): 87%; remaining activity at 100 µM (MSK1; [1]): 31%; remaining activity at 100 µM (IGF-1R; [1]): 18%; remaining activity at 100 µM (p38d MAPK; [1]): 43%
COc1ccc2sc(NC(=O)c3cccc(NC(C)=O)c3)nc2c1 [MS:LY-2-85] | 98 | 99 | 29 | 75 | 90 | 72 | – | –
CC(=O)Nc1ccccc1C(=O)Nc1nc2ccc(O)cc2s1 [Compound 08-39] | 88 | 96 | 22 | 35 | 84 | 67 | – | –
COc1ccc2sc(NC(=O)c3ccc(NC(C)=O)cc3)nc2c1 [MS:LY-2-77] | 102 | 111 | 96 | 101 | 89 | 98 | – | –
CC(=O)Nc1cccc(C(=O)Nc2nc3ccc(O)cc3s2)c1 [Compound 03-58] | 90 | 103 | 10 | 41 | 92 | 75 | – | –
CC(=O)NC(C)C(=O)Nc1nc2ccc(C(F)(F)F)cc2s1 (stereo not shown) [Compound 03-80] | 104 | 115 | 80 | 55 | 105 | 102 | – | –
CC(=O)Nc1ccc(C(=O)Nc2nc3cc(O)ccc3s2)cc1 [MS:LY-2-87] | 93 | 107 | 38 | 43 | 86 | 75 | – | –
CC(=O)Nc1cccc(C(=O)Nc2nc3cc(O)ccc3s2)c1 [MS:LY-2-89] | 87 | 98 | 11 | 28 | 82 | 70 | – | –
